Data as given in the supplement of paper PMC11451515.

System: P12-Ichikawa
Assay: cell viability relative to DMSO control; higher = less cytotoxic
Details: 48 h
Outline: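 Viability is a per-plate percentage relative to DMSO wells, with cell-free wells as background. CellTiter-Glo One luminescence was read after 48 h at 37°C on 1536-well plates (5 μl) of NOMO1 or SEM (500 cells/well) or P12-Ichikawa (1000 cells/well) leukemia cells. The cells had been adapted for at least four passages in each medium and pin-dosed with library compounds in DMSO from 47 μM to 0.79 nM in 11 threefold steps.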

[1] = HPLM + 10% dialyzed FBS, 0.000781 µM
[2] = HPLM + 10% dialyzed FBS, 0.00234 µM
[3] = HPLM + 10% dialyzed FBS, 0.00702 µM
[4] = HPLM + 10% dialyzed FBS, 0.0211 µM
[5] = HPLM + 10% dialyzed FBS, 0.0632 µM
[6] = HPLM + 10% dialyzed FBS, 0.19 µM
[7] = HPLM + 10% dialyzed FBS, 0.569 µM
[8] = HPLM + 10% dialyzed FBS, 1.71 µM
[9] = HPLM + 10% dialyzed FBS, 5.12 µM
[10] = HPLM + 10% dialyzed FBS, 15.4 µM
[11] = HPLM + 10% dialyzed FBS, 46.1 µM
[12] = RPMI 5 mM glucose + 10% FBS, 0.000781 µM
[13] = RPMI 5 mM glucose + 10% FBS, 0.00234 µM
[14] = RPMI 5 mM glucose + 10% FBS, 0.00702 µM
[15] = RPMI 5 mM glucose + 10% FBS, 0.0211 µM
[16] = RPMI 5 mM glucose + 10% FBS, 0.0632 µM
[17] = RPMI 5 mM glucose + 10% FBS, 0.19 µM
[18] = RPMI 5 mM glucose + 10% FBS, 0.569 µM
[19] = RPMI 5 mM glucose + 10% FBS, 1.71 µM
[20] = RPMI 5 mM glucose + 10% FBS, 5.12 µM
[21] = RPMI 5 mM glucose + 10% FBS, 15.4 µM
[22] = RPMI 5 mM glucose + 10% FBS, 46.1 µM
[23] = RPMI 5 mM glucose + 10% dialyzed FBS, 0.000781 µM
[24] = RPMI 5 mM glucose + 10% dialyzed FBS, 0.00234 µM
[25] = RPMI 5 mM glucose + 10% dialyzed FBS, 0.00702 µM
[26] = RPMI 5 mM glucose + 10% dialyzed FBS, 0.0211 µM
[27] = RPMI 5 mM glucose + 10% dialyzed FBS, 0.0632 µM
[28] = RPMI 5 mM glucose + 10% dialyzed FBS, 0.19 µM
[29] = RPMI 5 mM glucose + 10% dialyzed FBS, 0.569 µM
[30] = RPMI 5 mM glucose + 10% dialyzed FBS, 1.71 µM
[31] = RPMI 5 mM glucose + 10% dialyzed FBS, 5.12 µM
[32] = RPMI 5 mM glucose + 10% dialyzed FBS, 15.4 µM
[33] = RPMI 5 mM glucose + 10% dialyzed FBS, 46.1 µM

SMILES	cell viability [1]	cell viability [2]	cell viability [3]	cell viability [4]	cell viability [5]	cell viability [6]	cell viability [7]	cell viability [8]	cell viability [9]	cell viability [10]	cell viability [11]	cell viability [12]	cell viability [13]	cell viability [14]	cell viability [15]	cell viability [16]	cell viability [17]	cell viability [18]	cell viability [19]	cell viability [20]	cell viability [21]	cell viability [22]	cell viability [23]	cell viability [24]	cell viability [25]	cell viability [26]	cell viability [27]	cell viability [28]	cell viability [29]	cell viability [30]	cell viability [31]	cell viability [32]	cell viability [33]
Cc1ccc([S+](=O)([O-])Nc2nc3ccccc3nc2Nc2ccc3nsnc3c2)cc1	105%	110%	111%	110%	115%	116%	109%	112%	106%	36.3%	13.3%	93.4%	114%	104%	116%	103%	113%	110%	103%	77.5%	28.5%	12.4%	92%	107%	112%	116%	112%	104%	101%	112%	92.1%	74.1%	30.4%
Cc1csc(NC(=O)c2sc3nc4c(c(C(F)(F)F)c3c2N)CCC4)n1	88.3%	102%	98.1%	98%	94.4%	93.8%	95%	91.3%	90.3%	84.5%	83.4%	87.2%	100%	94%	92.1%	88.6%	91.1%	98.7%	90.1%	88.1%	79.2%	86.5%	82.7%	83.3%	81.6%	84.3%	89.4%	86.4%	88.6%	78.2%	84.9%	69.9%	73.6%
CC/1=C(/C(CC(=O)N1)C2=CC=C(C=C2)C(F)(F)F)C(=O)NC3=C(F)C=C4[NH]N=CC4=C3 (centres undefined)	93.5%	103%	101%	102%	101%	99.1%	100%	97.3%	98.4%	58.6%	44.6%	96.2%	104%	102%	100%	108%	99.9%	104%	98.3%	98.3%	66.9%	62%	95.3%	99.8%	99.9%	101%	104%	105%	107%	96.9%	107%	66.5%	47.6%
COc1cc2c(Nc3ccc(Br)cc3F)ncnc2cc1OCC1CCN(C)CC1	87.8%	93.5%	91.3%	91.1%	91.9%	88.4%	87.8%	82.8%	89.9%	73.9%	86.9%	82%	81.8%	79%	87.7%	87.3%	81.7%	85.2%	84.8%	80.6%	80.9%	83%	88.7%	86.1%	84.6%	83.3%	88.3%	88.8%	84.5%	84.4%	76.9%	68%	79.8%
CCC(=O)N[C@H]1CC[C@H](C(=O)N(C)c2ccc(-c3nc4ccccc4o3)cc2)C1	95.4%	97.1%	101%	102%	100%	99.5%	110%	103%	107%	104%	84.4%	92.3%	95.4%	96.4%	91.3%	101%	105%	108%	95.6%	97.5%	100%	54.8%	89.9%	92.2%	91.5%	98.3%	94%	99.7%	98.2%	109%	99%	94.6%	65.1%
CN(C)CC[C@H](c1ccc(Cl)cc1)c1ccccn1	83.7%	78.9%	84.2%	84.8%	90.7%	90.3%	85.8%	90.9%	87.1%	86%	89.7%	76.9%	78%	75.6%	78.9%	80.8%	80.8%	90.4%	85.2%	84.1%	81.2%	82.3%	69.9%	81.6%	73.6%	83.9%	86.2%	80.9%	78.1%	78.8%	76.9%	82.3%	77.5%
C[S+](=O)([O-])c1ccc(-c2cnc(N)c(C(=O)Nc3ccccc3)n2)cc1	99.6%	104%	107%	107%	117%	119%	118%	118%	114%	88.4%	87.2%	103%	119%	111%	112%	123%	122%	116%	121%	114%	76.9%	80.5%	104%	117%	120%	120%	121%	115%	124%	114%	117%	72.6%	69.7%
O=C(O)CCn1c2c(c3ccccc31)C[C@H](N[S+](=O)([O-])c1ccc(F)cc1)CC2	117%	113%		110%	113%	106%	113%	111%	106%	100%	73.6%	119%	120%	121%	121%	120%	122%	122%	111%	114%	115%	95.5%	110%	116%	116%	114%	115%	103%	109%	108%	102%	92.2%	66.9%
C[C@@H](NC(=O)c1ncnc(N)c1Cl)c1ncc(C(=O)Nc2cc(C(F)(F)F)c(Cl)cn2)s1	124%	119%	121%	123%	120%	122%	116%	115%	116%	104%	92.7%																						
C[C@]12CC[C@H]3[C@@H](C\C=C/4C[C@@H](O)CC[C@]34C)[C@@H]1CCC2=O	111%	110%	117%	108%	110%	115%	107%	111%	58%	102%	96.2%												111%	109%	115%	108%	122%	114%	105%	102%	99.1%	101%	98.5%
COc1cc([C@H]2Oc3cc([C@H]4Oc5cc(O)cc(O)c5C(=O)[C@@H]4O)ccc3O[C@@H]2CO)ccc1O	108%	118%	106%	109%	118%	119%	112%	110%	105%	99.8%	99.8%	113%	112%	125%	109%	113%	104%	98.9%	112%	116%	101%	94.2%	102%	109%	115%	105%	111%	106%	103%	101%	96.7%	100%	90.1%
CC(C)c1ccc(Cn2ccc3c4c(N)nc(NC5CC5)nc4ccc32)cc1	110%	116%	119%	84%	116%	100%	83.4%	65.6%	32.7%	26.7%	2.54%	118%	123%	127%	84.8%	126%	133%	133%	114%	52.2%	51.5%	2.24%	118%	124%	122%	86.4%	139%	126%	132%	85.5%	36.5%	32.1%	2.44%
CN1CCN2c3ncccc3Cc3ccccc3C2C1 (centres undefined)	122%	119%	113%	120%	122%	115%	114%	119%	114%	108%	111%	134%	118%	124%	132%	129%	125%	135%	121%	117%	112%	101%	125%	118%	113%	120%	121%	118%	128%	115%	111%	108%	100%
O=C1Nc2ccc(I)cc2/C1=C/c1cc(Br)c(O)c(Br)c1	103%	100%	103%	105%	109%	105%	108%	102%	102%	98.2%	86.4%	99%	110%	106%	103%	101%	104%	102%	104%	101%	96.7%	79%	106%	111%	110%	107%	103%	111%	108%	101%	100%	93.4%	84%
CCN(C(=O)C/1=C(O)/C2=C(C=CC=C2Cl)N(C)C1=O)C3=CC=CC=C3	93.7%	100%	98.1%	102%	97.9%	93.2%	95.9%	77.6%	31.8%	2.09%	3.36%	90.3%	97%	98.7%	105%	88.8%	77.5%	82.7%	52.7%	25.4%	1.95%	2.3%	85.2%	91.3%	91.5%	96.4%	99.6%	78.5%	82.8%	46.1%	16.3%	2.21%	3.11%
NC(=O)c1cccc2cn(-c3ccc([C@@H]4CCCNC4)cc3)nc12	90.3%	94.4%	103%	104%	110%	105%	108%	106%	101%	86.9%	33.8%	83.9%	90.4%	96.8%	100%	103%	105%	101%	102%	103%	75.5%	24.5%	94.1%	98.6%	103%	105%	108%	113%	103%	106%	101%	88.4%	55.5%
